Measurements as given in BindingDB's records for doi:10.1016/s0960-894x(01)00477-2 (Section De Chimie De L'Universit&#163, 2001).

Experiments:
[1] = Inhibitory activity towards Beta-Glucosidase from Almond
[2] = Inhibitory activity towards Alpha-mannosidase from jack bean
[3] = Inhibitory activity towards Beta-Glucosidase from Almond; remark: listed apart in the source
[4] = Inhibitory activity towards Alpha-mannosidase from Jack bean
[5] = as above; remark: listed apart in the source
[6] = Inhibitory activity towards Beta-Glucosidase from Almond; remark: listed apart in the source
[7] = Inhibitory activity towards Alpha-mannosidase from Almond
[8] = Inhibitory activity towards Beta-Glucosidase from Almond; remark: listed apart in the source
[9] = Inhibitory activity towards Alpha-mannosidase from Almond; remark: listed apart in the source
[10] = as above; remark: listed apart in the source

Ki [4] | IC50 [5] | IC50 [6] | SMILES | also measured
 |  | 370 µM | OC1CNC(CNCc2ccccc2)C1O (stereo not drawn) [2-(Benzylamino-methyl)-pyrrolidine-3,4-diol] | 
170 µM | 440 µM |  | C[C@@H](NCC1NCC(O)C1O)c1ccccc1 (stereo partly drawn) [2-[((R)-1-Phenyl-ethylamino)-methyl]-pyrrolidine-3,4-diol] | 
 | 700 µM | 430 µM | OC1CNC(CNCC2CCN(Cc3ccccc3)CC2)C1O (stereo not drawn) [2-{[(1-Benzyl-piperidin-4-ylmethyl)-amino]-methyl}-pyrrolidine-3,4-diol] | 
 |  | 140 µM | OC1CNC(CNCc2ccco2)C1O (stereo not drawn) [2-{[(Furan-2-ylmethyl)-amino]-methyl}-pyrrolidine-3,4-diol] | Ki [8]: 12 µM
 | 700 µM | 420 µM | OC1CNC(CNCn2ccnc2)C1O (stereo not drawn) [2-{[(Imidazol-1-ylmethyl)-amino]-methyl}-pyrrolidine-3,4-diol] | IC50 [7]: 570 µM
26 µM |  |  | OC1CNC(CNCc2cccs2)C1O (stereo not drawn) [2-{[(Thiophen-2-ylmethyl)-amino]-methyl}-pyrrolidine-3,4-diol] | Ki [9]: 98 µM; IC50 [10]: 350 µM
 |  | 430 µM | CC(=O)N(Cc1ccccc1)CC1NCC(O)C1O (stereo not drawn) [N-Benzyl-N-(3,4-dihydroxy-pyrrolidin-2-ylmethyl)-acetamide] | Ki [1]: 220 µM

Further lines, the compound ahead of its results:

SMILES | Ki [4] | IC50 [5] | IC50 [6] | also measured
OCC(O)[C@H]1NC[C@H](O)[C@@H]1O (stereo partly drawn) |  |  |  | Ki [1]: 53 µM; IC50 [2]: 800 µM; IC50 [3]: 120 µM
OC(O)CC1NCC(O)C1O (stereo not drawn) [2-(2,2-Dihydroxy-ethyl)-pyrrolidine-3,4-diol] | 80 µM | 180 µM |  | 
NCC1NCC(O)C1O (stereo not drawn) [2-Aminomethyl-pyrrolidine-3,4-diol] | 53 µM | 170 µM |  | IC50 [7]: 1000 µM
OC1CNC(CNC2CCCC2)C1O (stereo not drawn) [2-Cyclopentylaminomethyl-pyrrolidine-3,4-diol] |  |  | 500 µM | IC50 [2]: 560 µM
CC(NCC1NCC(O)C1O)C(O)(c1ccccc1)c1ccccc1 (stereo not drawn) [2-[(2-Hydroxy-1-methyl-2,2-diphenyl-ethylamino)-methyl]-pyrrolidine-3,4-diol] | 170 µM |  | 550 µM | IC50 [2]: 440 µM
